This note sets out measurements from BindingDB's records for doi:10.1016/j.chembiol.2014.09.011 (Astrazeneca R&D, 2014).

The target in this experiment is T1, AMP deaminase 3 (Rattus norvegicus, UniProt O09178).
T1 sequence (O09178 whole entry): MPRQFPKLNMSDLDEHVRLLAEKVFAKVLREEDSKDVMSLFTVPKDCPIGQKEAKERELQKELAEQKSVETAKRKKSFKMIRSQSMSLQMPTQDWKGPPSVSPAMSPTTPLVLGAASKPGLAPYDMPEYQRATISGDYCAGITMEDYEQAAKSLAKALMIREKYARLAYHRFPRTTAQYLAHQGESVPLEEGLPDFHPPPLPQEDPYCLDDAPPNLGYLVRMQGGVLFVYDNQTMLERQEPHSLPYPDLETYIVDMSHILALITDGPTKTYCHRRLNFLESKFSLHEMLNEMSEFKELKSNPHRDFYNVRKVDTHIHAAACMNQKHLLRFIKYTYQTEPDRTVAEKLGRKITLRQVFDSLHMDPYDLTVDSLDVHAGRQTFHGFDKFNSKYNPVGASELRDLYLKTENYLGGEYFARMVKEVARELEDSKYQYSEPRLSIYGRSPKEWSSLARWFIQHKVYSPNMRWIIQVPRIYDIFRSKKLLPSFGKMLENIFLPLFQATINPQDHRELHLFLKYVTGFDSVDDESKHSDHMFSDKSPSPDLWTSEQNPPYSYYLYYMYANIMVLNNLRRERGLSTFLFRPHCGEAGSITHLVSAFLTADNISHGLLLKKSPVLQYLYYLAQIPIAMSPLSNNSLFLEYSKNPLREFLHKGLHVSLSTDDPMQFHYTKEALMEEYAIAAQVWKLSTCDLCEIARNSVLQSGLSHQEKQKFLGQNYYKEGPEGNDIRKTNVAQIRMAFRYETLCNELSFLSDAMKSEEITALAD
Briefly: AMPD Enzymatic Activity Assay. Particulars: pH 7.4.

The IC50 is the concentration that inhibits the measured activity by half.

For the molecule `C[C@H](NCc1ccc(-c2ccc(C(=O)O)cn2)cc1)c1cccc2ccncc12` [6-[4-({[(1S)-1-(isoquinolin-8-yl)ethyl]amino}methyl)phenyl]pyridine-3-carboxylic acid (Compound 3)], the IC50 was 0.4 µM. Take `C[C@@H](NCc1ccc(-c2ccc(C(=O)O)cn2)cc1)c1cccc2ccncc12` [6-[4-({[(1R)-1-(isoquinolin-8-yl)ethyl]amino}methyl)phenyl]pyridine-3-carboxylic acid (Compound 2)]: the IC50 stood at 44 µM. Against the preceding molecule, the IC50 is about 110-fold higher.
